In PubChem BioAssay AID1919014 (Molecular Pharmacology Branch, DTP, NCI, 2023):

Test system: NCI-H1341 complex spheroids, percent test/control
Test: Anticancer human tumor NCI-H1341 cell line growth inhibition [AhR];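 note: spheroids exposed to agents for seven days before readout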
Conditions: for IC50: curve of first compound; for viability, T/C: stronger effect = lower value
From the text: Multicellular complex tumor spheroid response to aryl hydrocarbon receptor antagonists in combination with a variety of drugs and investigational agents in selected tumor cell lines
The current study was undertaken to assess response to aryl hydrocarbon receptor antagonists in combination with standard-of-care drugs and investigational agents in solid tumor complex spheroid models. Complex spheroids include a stromal component modeled by human endothelial cells (HUVEC) and fibroblasts modeled by human mesenchymal stem cells (MSCs). The concentration ranges selected for each drug and investigational agent were based upon clinically achievable concentrations if the clinical Cmax of the agent was known.
Compounds. The drugs and investigational agents: BAY 2416964 (NSC825713), GNF351 (NSC835774), CH-223191 (NSC835775), CPI-455 (NSC825282), aza-TdCyd (NSC777586), decitabine (NSC127716), belinostat (NSC758774), entinostat (NSC756642), pevonedistat (NSC761192), tazemetostat (NSC777109), talazoparib (NSC765396), olaparib (NSC753686), selinexor (NSC780203), nedisertib (M3814, NSC802822), bortezomib (NSC756655), venetoclax (NSC766270), doxorubicin (NSC123127), elimusertib (BAY189344, NSC800525), ceralasertib (AZD6738, NSC777638), TAK-243 (NSC785004), alisertib (NSC759677), etoposide (NSC141540), topotecan (NSC609699), eribulin (NSC707389), gemcitabine (NSC613327), carboplatin (NSC241240), cisplatin (NSC119875), and SN-38 (NSC673596) were obtained from the National Cancer Institute (NCI) Developmental Therapeutics Program Chemical Repository (32). The FDA-approved anticancer drug set is available from the Developmental Therapeutics Program at https://dtp.cancer.gov/organization/dscb/obtaining/available plates.htm. […] The stock solutions were prepared in dimethyl sulfoxide (DMSO, Sigma-Aldrich, St. Louis, MO, cat. D2650), except for the platinum compounds which were prepared in saline (Quality Biological, Gaithersburg, MD, cat. 114-055-101), at 800-fold the tested concentration and stored at -70 degrees C prior to their use. All drugs and investigational agents were tested over a range starting from a high concentration at or near the clinical Cmax and decreasing in half-log increments. If the clinical Cmax for an agent had not been determined, the highest concentration tested was 10 microM (Table 1).
Cell Culture. All cells were maintained in an incubator at 37 degrees C and 5% CO2 with 95% humidity. The PDC lines were cultured according to standard operating procedures established by the NCI PDMR (https://pdmr.cancer.gov). Briefly, all PDCs were thawed and cultured in Matrigel-coated flasks prepared with a working solution of 1X Ham's F-12 nutrient mix, without supplementation (Invitrogen, Waltham, MA, cat. 11765054), 100 U/mL penicillin-streptomycin (Invitrogen, cat. 15140122), and 2.5% Matrigel (Corning Inc., Corning, NY, cat. 354248) for the first three passages. All PDCs were cultured in complete DMEM/F-12 media containing advanced DMEM/F-12 (Invitrogen, cat. 12634028), 4.9% defined fetal bovine serum, heat inactivated (HyClone Laboratories Inc., Logan, UT, cat. SH30070.03HI), 389 ng/mL hydrocortisone (Sigma-Aldrich, cat. H4001), 9.7 ng/mL human EGF recombinant protein (Invitrogen, cat. PHG0313), 23.4 microg/mL adenine (Sigma-Aldrich, cat. A2786), 97.3 U/mL penicillin-streptomycin (Invitrogen, cat. 15140122), 1.9 mM L-glutamine (Invitrogen, cat. 25030081), and 9.7 microM Y-27632 dihydrochloride (Tocris Bioscience, Bristol, United Kingdom, cat. 1254). The PDCs were cultured in complete DMEM/F12 media without 10 microM Y-27632 dihydrochloride for at least two passages prior to the screen. The established cell lines NCI-H1341 and […] were cultured in DMEM/F-12, HEPES (Invitrogen, cat. 11330032), 5% defined fetal bovine serum (HyClone Laboratories Inc., cat. SH30070.03), ITS premix universal culture supplement [insulin (5 microg/mL), transferrin (5 microg/mL), and selenious acid (5 ng/mL)] […]

[1] = second compound 0.1 µM, first compound 0.00316 µM
[2] = second compound 0.1 µM, first compound 0.01 µM
[3] = second compound 0.1 µM, first compound 0.0316 µM
[4] = second compound 0.1 µM, first compound 0.1 µM
[5] = second compound 0.316 µM, first compound 0.00316 µM
[6] = second compound 0.316 µM, first compound 0.01 µM
[7] = second compound 0.316 µM, first compound 0.0316 µM
[8] = second compound 0.316 µM, first compound 0.1 µM
[9] = second compound 1 µM, first compound 0.00316 µM
[10] = second compound 1 µM, first compound 0.01 µM
[11] = second compound 1 µM, first compound 0.0316 µM
[12] = second compound 1 µM, first compound 0.1 µM
[13] = second compound 3.16 µM, first compound 0.00316 µM
[14] = second compound 3.16 µM, first compound 0.01 µM
[15] = second compound 3.16 µM, first compound 0.0316 µM
[16] = second compound 3.16 µM, first compound 0.1 µM
[17] = second compound 10 µM, first compound 0.00316 µM
[18] = second compound 10 µM, first compound 0.01 µM
[19] = second compound 10 µM, first compound 0.0316 µM
[20] = second compound 10 µM, first compound 0.1 µM
[21] = second compound 0.1 µM, first compound 0.316 µM
[22] = second compound 0.1 µM, first compound 1 µM
[23] = second compound 0.1 µM, first compound 3.16 µM
[24] = second compound 0.1 µM, first compound 10 µM
[25] = second compound 0.316 µM, first compound 0.316 µM
[26] = second compound 0.316 µM, first compound 1 µM
[27] = second compound 0.316 µM, first compound 3.16 µM
[28] = second compound 0.316 µM, first compound 10 µM
[29] = second compound 1 µM, first compound 0.316 µM
[30] = second compound 1 µM, first compound 1 µM
[31] = second compound 1 µM, first compound 3.16 µM
[32] = second compound 1 µM, first compound 10 µM
[33] = second compound 3.16 µM, first compound 0.316 µM
[34] = second compound 3.16 µM, first compound 1 µM
[35] = second compound 3.16 µM, first compound 3.16 µM
[36] = second compound 3.16 µM, first compound 10 µM
[37] = second compound 10 µM, first compound 0.316 µM
[38] = second compound 10 µM, first compound 1 µM
[39] = second compound 10 µM, first compound 3.16 µM
[40] = second compound 10 µM, first compound 10 µM

Structure (SMILES): CC[C@@]1(O)C(=O)OCc2c1cc1n(c2=O)Cc2cc3c(CN(C)C)c(O)ccc3nc2-1 + CC(CO)NC(=O)c1cc(-c2ccc(Cl)cc2)nn(-c2cnn(C)c2)c1=O
- IC50 (second compound 0.1 µM): 31.3 nM
- IC50 (second compound 0.316 µM): 60.3 nM
- IC50 (second compound 1 µM): 48.9 nM
- IC50 (second compound 3.16 µM): 31.4 nM
- IC50 (second compound 10 µM): 32.4 nM
- viability, T/C (second compound 0.1 µM, first compound 0.000316 µM): 81.7%
- viability, T/C (second compound 0.1 µM, first compound 0.001 µM): 85.1%
- viability, T/C [1]: 103%
- viability, T/C [2]: 81.5%
- viability, T/C [3]: 50.3%
- viability, T/C [4]: 40.2%
- viability, T/C (second compound 0.316 µM, first compound 0.000316 µM): 84.4%
- viability, T/C (second compound 0.316 µM, first compound 0.001 µM): 66.2%
- viability, T/C [5]: 84.6%
- viability, T/C [6]: 75.8%
- viability, T/C [7]: 58.3%
- viability, T/C [8]: 43.5%
- viability, T/C (second compound 1 µM, first compound 0.000316 µM): 90.7%
- viability, T/C (second compound 1 µM, first compound 0.001 µM): 84%
- viability, T/C [9]: 65%
- viability, T/C [10]: 76.8%
- viability, T/C [11]: 58.8%
- viability, T/C [12]: 37.2%
- viability, T/C (second compound 3.16 µM, first compound 0.000316 µM): 87.3%
- viability, T/C (second compound 3.16 µM, first compound 0.001 µM): 74.8%
- viability, T/C [13]: 79.2%
- viability, T/C [14]: 71.4%
- viability, T/C [15]: 49.5%
- viability, T/C [16]: 39.1%
- viability, T/C (second compound 10 µM, first compound 0.000316 µM): 80.8%
- viability, T/C (second compound 10 µM, first compound 0.001 µM): 77.8%
- viability, T/C [17]: 69.2%
- viability, T/C [18]: 70.1%
- viability, T/C [19]: 48%
- viability, T/C [20]: 36.6%

Structure (SMILES): COc1cc(C2c3cc4c(cc3C(OC3OC5COC(C)OC5C(O)C3O)C3COC(=O)C23)OCO4)cc(OC)c1O (stereo not given) + CC(CO)NC(=O)c1cc(-c2ccc(Cl)cc2)nn(-c2cnn(C)c2)c1=O
- IC50 (second compound 0.1 µM): 1190 nM
- IC50 (second compound 0.316 µM): 673 nM
- IC50 (second compound 1 µM): 471 nM
- IC50 (second compound 3.16 µM): 294 nM
- IC50 (second compound 10 µM): 135 nM
- viability, T/C [3]: 85.9%
- viability, T/C [4]: 84.6%
- viability, T/C [21]: 65.2%
- viability, T/C [22]: 50.4%
- viability, T/C [23]: 44.8%
- viability, T/C [24]: 33.3%
- viability, T/C [7]: 72.4%
- viability, T/C [8]: 69.1%
- viability, T/C [25]: 55.5%
- viability, T/C [26]: 44.8%
- viability, T/C [27]: 39.4%
- viability, T/C [28]: 28.7%
- viability, T/C [11]: 74.2%
- viability, T/C [12]: 76.5%
- viability, T/C [29]: 54.4%
- viability, T/C [30]: 44.3%
- viability, T/C [31]: 41.3%
- viability, T/C [32]: 36.1%
- viability, T/C [15]: 74.6%
- viability, T/C [16]: 75.6%
- viability, T/C [33]: 48.2%
- viability, T/C [34]: 40.2%
- viability, T/C [35]: 41.1%
- viability, T/C [36]: 28.6%
- viability, T/C [19]: 63.5%
- viability, T/C [20]: 56.8%
- viability, T/C [37]: 40.6%
- viability, T/C [38]: 33.4%
- viability, T/C [39]: 33.2%
- viability, T/C [40]: 27.3%

Structure (SMILES): COc1cccc2c1C(=O)c1c(O)c3c(c(O)c1C2=O)CC(O)(C(=O)CO)CC3OC1CC(N)C(O)C(C)O1 (stereo not given) + CC(CO)NC(=O)c1cc(-c2ccc(Cl)cc2)nn(-c2cnn(C)c2)c1=O
- IC50 (second compound 0.1 µM): 108 nM
- IC50 (second compound 0.316 µM): < 31.6 nM
- IC50 (second compound 1 µM): 103 nM
- IC50 (second compound 3.16 µM): < 31.6 nM
- IC50 (second compound 10 µM): < 31.6 nM
- viability, T/C [3]: 51%
- viability, T/C [4]: 53%
- viability, T/C [21]: 32.4%
- viability, T/C [22]: 6.25%
- viability, T/C [23]: 0.83%
- viability, T/C [24]: 2.75%
- viability, T/C [7]: 51.3%
- viability, T/C [8]: 40.9%
- viability, T/C [25]: 28.4%
- viability, T/C [26]: 6.42%
- viability, T/C [27]: 0.79%
- viability, T/C [28]: 2.4%
- viability, T/C [11]: 48.4%
- viability, T/C [12]: 53.3%
- viability, T/C [29]: 30.2%
- viability, T/C [30]: 4.94%
- viability, T/C [31]: 1.46%
- viability, T/C [32]: 2.75%
- viability, T/C [15]: 43.9%
- viability, T/C [16]: 53.7%
- viability, T/C [33]: 26.7%
- viability, T/C [34]: 3.92%
- viability, T/C [35]: 3.09%
- viability, T/C [36]: 2.61%
- viability, T/C [19]: 41.6%
- viability, T/C [20]: 36.8%
- viability, T/C [37]: 15.2%
- viability, T/C [38]: 0.93%
- viability, T/C [39]: 2.19%
- viability, T/C [40]: 2.31%

Structure (SMILES): Nc1ncn(C2CC(O)C(CO)O2)c(=O)n1 (stereo not given) + CC(CO)NC(=O)c1cc(-c2ccc(Cl)cc2)nn(-c2cnn(C)c2)c1=O
- IC50 (second compound 0.1 µM): 154 nM
- IC50 (second compound 0.316 µM): 179 nM
- IC50 (second compound 1 µM): 85.3 nM
- IC50 (second compound 3.16 µM): 207 nM
- IC50 (second compound 10 µM): 215 nM
- viability, T/C [1]: 76.5%
- viability, T/C [2]: 85.7%
- viability, T/C [3]: 81.8%
- viability, T/C [4]: 59.3%
- viability, T/C [21]: 34.2%
- viability, T/C [22]: 26.6%
- viability, T/C [5]: 92.1%
- viability, T/C [6]: 99%
- viability, T/C [7]: 85.2%
- viability, T/C [8]: 61.8%
- viability, T/C [25]: 39.1%
- viability, T/C [26]: 31.8%
- viability, T/C [9]: 92.2%
- viability, T/C [10]: 86.3%
- viability, T/C [11]: 81.3%
- viability, T/C [12]: 45%
- viability, T/C [29]: 32.5%
- viability, T/C [30]: 33.7%
- viability, T/C [13]: 79.8%
- viability, T/C [14]: 65.6%
- viability, T/C [15]: 67.1%
- viability, T/C [16]: 66.3%
- viability, T/C [33]: 40.6%
- viability, T/C [34]: 30.9%
- viability, T/C [17]: 82.1%
- viability, T/C [18]: 69.6%
- viability, T/C [19]: 79.8%
- viability, T/C [20]: 67.5%
- viability, T/C [37]: 41%
- viability, T/C [38]: 27.2%
